Patent US20260315499A1, “2'- {HETEROCYCLYL (ARYL/ALKYL) METHYL} - CANNABIDIOL COMPOUNDS AND PROCESS FOR PREPARATION THEREOF” (COUNCIL OF SCIENTIFIC & INDUSTRIAL RESEARCH, priority 2023, published 2026)
Where “and” joins values, the source holds several entries; their conditions need not be identical. Equal entries are not always repeated. Where two headings read alike, the source gives them in different places.

Columns and labels:
[1] = Cell viability assay in differentiated neuronal cells (MTT), SHSY5Y; format: cell-based; conditions: human, read-out: % Cell viability ± SD, SHSY5Y
Text: In the present disclosure outlined herein, a focused library of cannabidiol analogues were studied for possible neuro-protective potential employing cell line-based stress model systems which mimic the biological stress conditions in vitro (J Cell Biochem., 2018, 119(8), 6482-6491).
Human neuroblastoma cells (SHSY5Y) and mouse neuroblastoma cells (N2A) were procured from American Type Culture Collection (ATCC). SHSY5Y cell cultures were maintained in DMEM F12 (Invitrogen) whereas N2A were cultured in DMEM (Invitrogen) with 10% Fetal Bovine Serum (Gibco) medium, subjected to differentiation to acquire neuronal morphology (employing differentiation media DMEM-F12, 3-5% FBS, (For differentiation, low concentration of FBS was used) and 50 μM retinoic acid). Differentiated cells were later seeded into 96 well plates, at a density of 1×10^4 before being incubated for 48 hrs with the synthesized library. The exhausted culture media was substituted with new culture media containing 0.5 mg/ml MTT dye. Eventually, the OD at 490 nm excitation was measured using a 96-well plate reader. The proportion of viable cells was determined as percentage of absorbance of untreated cultures relative to control.

[2] = Cell viability assay in macrophage RAW264.7 cells (MTT); format: cell-based; conditions: mouse, read-out: % cell viability ± SD
Procedure: RAW264.7 cells were seeded in 96-well cell culture plates at a density of 1×10^4 cells per well and incubated overnight at 37° C. with 5% CO2. Next day, the cells were treated with CBD or its derivatives at 5 μM and/or 10 μM concentration for 24 hrs. The MTT dye (2.5 mg/ml, 20 μL) was added to each well 4 hrs before termination (Molecules. 2022, 27, 8068). After 4 hrs of incubation with MTT, the supernatant was discarded, and the formazan crystals were dissolved by adding 100 μL DMSO. The absorbance was recorded at 540 nm on microplate reader (Tecan Infinite Pro).

TrkB stable cells SHSY5Y = assay: Cytoprotective effect in TrkB stable cells SHSY5Y, 96 hrs; format: cell-based, human; conditions: 96 hrs; for viability at 20 µM: Homo sapiens, SH-SY5Y, 96 h, read-out: % Cell viability ± SD
Procedure: In another experiment, the cytoprotective effect of A1 as well as parent molecule B1 was determined in TrkB stable cells SHSY5Y.

depression mice model [3] = assay: In vivo corticosterone induced depression model: sucrose preference test; set-up: species or system mouse (male C57); conditions: for % Sucrose consumption (ml) ± SD: 2% sucrose, 21 days
Procedure: (§1) In vivo efficacy (ameliorates behavioral despair) of A1 in corticosterone induced model of stress (J. Neurochem., 2018 146, 722 734). […] A1 (20 mg/kg, oral) dissolved in normal saline was given for 3 consecutive weeks following corticosteroid stress. The sucrose preference test was employed, tail suspension test, and forced swim test to evaluate behavioral distress. We noticed that A1 can resurrect mice in stressful situations. […]
Sucrose consumption was employed to evaluate anhedonia, a core hallmark of depression in mice. The animals were allowed unfettered access to both identical bottles, one containing water while the other contained a 2% solution of sucrose, for 21 days.
The below equation was later employed to determine water and sugar consumed by mice:
Sucrose Preference=Sucrose consumed[…]/Total fluid intake.

depression mice model [4] = assay: In vivo corticosterone induced depression model: Tail Suspension Test (TST); set-up: species or system mouse (male C57); conditions: A1 20 mg/kg, fluoxetine 18 mg/kg
Procedure: A1 (20 mg/kg, oral) dissolved in normal saline was given for 3 consecutive weeks following corticosteroid stress. The sucrose preference test was employed, tail suspension test, and forced swim test to evaluate behavioral distress.
Tail Suspension Test (TST) is a behavioral test employed to assess perturbations expected to influence depression like phenotypes. TST is grounded on the reflection that the extent of immobility is allied with depressing phenotype of mice overturned by antidepressants. Mice were positioned 2 cm from their tail tips and 5 cm above the ground suspending the tails using adhesive tape for the free movement (Acta Neuropathol Commun., 2016, 4(1), 108).
The contemporary immobility was alluded to as interruption in motion, where a blind assessor evaluates the disappointed aspect of display before scoring it.

depression mice model [5] = assay: In vivo corticosterone induced depression model: Forced Swim Test; set-up: species or system mouse (male C57)
Procedure: as §1
The forced swim test was employed to evaluate behavioral melancholy in depressed subjects. Each animal was individually conditioned in a glass cylinder 20 cm long, 10 cm deep and 14 cm radius of curvature. After being submerged in water for 5 mins, the mice's cumulative stationary episode, struggle in water, and eventual floating condition were evaluated. The duration for which the animals were motionless while attempting to hold both of their front limbs still was calculated by interpreting the visualizations portraying behavioral despair (Front Behav Neurosci., 2018, 12, 42).

[6] = system: differentiated SHSY5Y cell cultures; assay: Neuroprotective potential in differentiated SHSY5Y after 96 hrs, concentration series with and without corticosterone; format: cell-based, human
p-Erk 44/42 = assay: Survival pathway protein expression by western blotting in SHSY5Y; format: cell-based, human; conditions: for Relative Protein Expression p ERK 44/42: A1 + Cort.
Anti BDNF = assay: as above; format: cell-based, human; conditions: for Relative Protein Expression Anti BDNF: A1 + Cort.
p TrkB 515 = assay: as above; format: cell-based, human
[7] = A1 for multiple time spans, corticosterone

## C=C(C)[C@@H]1CCC(C)=C[C@H]1c1c(O)cc(CCCCC)c(CN2CCOCC2)c1O [A1, 2′-(morpholin-1-ylmethyl)-cannabidiol]
[1]
  viability at 48 h, 20 µM: 115.7 ± 0.71%
[2]; RAW264.7, 5 μM
  viability at 24 h, 5 µM: 93.1 ± 1.1%
[2]; RAW264.7, 10 μM
  viability at 24 h, 10 µM: 83.5 ± 0.6%
TrkB stable cells SHSY5Y
  cell viability versus control (in words): increased cell viability versus control
TrkB stable cells SHSY5Y; test compound 20 μM + Cort. 400 μM
  viability at 20 µM: 97.2 ± 1.13%
TrkB stable cells SHSY5Y; test compound alone, 20 μM
  viability at 20 µM: 110 ± 1.61%
Depression mice model [3]; compared with stressed mice
  increase of sucrose consumption: more than 50%
Depression mice model [3]; with Cort.
  % Sucrose consumption (ml) ± SD: 78.02±0.99%
Depression mice model [3]; without Cort.
  % Sucrose consumption (ml) ± SD: 83.80±0.80%
Depression mice model [4]; with Cort. 35 μg/ml
  % Immobility (sec) ± SD (dead time): 33.05 ± 5.62 s
  % Latency to immobility (sec) ± SD: 36.90 ± 14.54 s
Depression mice model [4]; without Cort.
  % Immobility (sec) ± SD (dead time): 28.76 ± 9.01 s and 28.76 ± 9.10 s
  % Latency to immobility (sec) ± SD: 54.35 ± 9.74 s
Depression mice model [5]; with Cort.
  % Immobility (sec) ± SD (dead time): 17.67 ± 5.12 s
  % Latency to immobility (sec) ± SD: 34.06 ± 14.03 s
Depression mice model [5]; without Cort.
  % Immobility (sec) ± SD (dead time): 24.22 ± 5.30 s
  % Latency to immobility (sec) ± SD: 44.59 ± 19.55 s
[6]; A1 alone 1.25, 2.5, 5, 10, 20 and 40 μM
  cell viability compared to positive control DHF (in words): no significant variation in cell viability when compared to positive control DHF
[6]; Homo sapiens, SH-SY5Y, 96 h, A1 1.25 μM, without Cort
  viability at 1.25 µM: 102%
[6]; Homo sapiens, SH-SY5Y, 96 h, A1 2.5 μM, without Cort
  viability at 2.5 µM: 108%
[6]; Homo sapiens, SH-SY5Y, 96 h, A1 5 μM + Cort 400 μM, 96 hrs
  viability at 5 µM: 103%
[6]; Homo sapiens, SH-SY5Y, 96 h, A1 5 μM, without Cort
  viability at 5 µM: 108%
[6]; Homo sapiens, SH-SY5Y, 96 h, A1 10 μM, without Cort
  viability at 10 µM: 117%
[6]; Homo sapiens, SH-SY5Y, 96 h, A1 20 μM, without Cort
  viability at 20 µM: 115%
[6]; Homo sapiens, SH-SY5Y, 96 h, A1 40 μM, without Cort
  viability at 40 µM: 115%
[6]; concentrations as high as 40 μM, up to 96 hrs, with and without corticosterone
  toxicity (in words): non-toxic even at concentrations as high as 40 μM
p-Erk 44/42; 0 hr
  Relative Protein Expression p ERK 44/42: 1.00
p-Erk 44/42; 0.5 hr
  Relative Protein Expression p ERK 44/42: 1.32
p-Erk 44/42; 1 hr
  Relative Protein Expression p ERK 44/42: 3.29
p-Erk 44/42; 2 hr
  Relative Protein Expression p ERK 44/42: 8.33
p-Erk 44/42; 4 hr
  Relative Protein Expression p ERK 44/42: 9.69
p-Erk 44/42; 6 hr
  Relative Protein Expression p ERK 44/42: 10.62
p-Erk 44/42; [7]
  expression of p-Erk 44/42 (in words): remarkably increased
Anti BDNF; 0 hr
  Relative Protein Expression Anti BDNF: 1.029
Anti BDNF; 0.5 hr
  Relative Protein Expression Anti BDNF: 14.02
Anti BDNF; 1 hr
  Relative Protein Expression Anti BDNF: 28.11
Anti BDNF; 2 hr
  Relative Protein Expression Anti BDNF: 51.76
Anti BDNF; 4 hr
  Relative Protein Expression Anti BDNF: 41.62
Anti BDNF; [7]
  expression of Anti BDNF (in words): remarkably increased
P TrkB 515; A1 5 μM, 6 hrs
  Relative Protein Expression p TrkB 515: 0.23
P TrkB 515; A1 + Cort., 0 hr
  Relative Protein Expression p TrkB 515: 1.019
P TrkB 515; A1 + Cort., 0.5 hr
  Relative Protein Expression p TrkB 515: 2.277
P TrkB 515; A1 + Cort., 1 hr
  Relative Protein Expression p TrkB 515: 6.57
P TrkB 515; A1 + Cort., 2 hr
  Relative Protein Expression p TrkB 515: 8.707
P TrkB 515; A1 + Cort., 4 hr
  Relative Protein Expression p TrkB 515: 8.145
P TrkB 515; [7]
  expression of p TrkB 515 (in words): remarkably increased
